Reference: patent US7763602B2, “Pyrrole derivatives as antimycobacterial compounds” (priority 2002, dated 2010)
In brackets after ≈: the same amount, converted by molar mass. Read-outs that look alike come from different tables or passages of the source.

How the values were obtained:
[1] = system: M. tuberculosis H37Rv ATCC 27294; experiment: In vitro growth inhibition assay, BACTEC 460 TB system; type: cell-based, Mycobacterium tuberculosis; design: key: +: If ΔGI of test vial is less than that of the control vial the culture was sensitive to the test compound; conditions: final concentration 6.25 μg/ml
M. tuberculosis 27294 = experiment: In vitro agar dilution assay (MIC), reference strain; type: cell-based, Mycobacterium tuberculosis; conditions: Mycobacterium tuberculosis, 27294, Table I, read-out: MIC (μg/ml) against M. tuberculosis-27294
[2] = system: M. tuberculosis clinical isolates, sensitive; experiment: microbe, parasite or virus in culture; type: cell-based, Mycobacterium tuberculosis; conditions: Mycobacterium tuberculosis
[3] = system: M. avium-intracellulare complex; experiment: In vitro agar dilution assay (MIC), M. avium-intracellulare complex; type: cell-based; conditions: Mycobacterium avium-intracellulare; Table II; 13 strains; read-out: MIC (μg/ml) M. avium-intracellulare complex (n = 13)
M. fortuitum = experiment: In vitro agar dilution assay (MIC), M. fortuitum; type: cell-based, Mycobacterium fortuitum; conditions: Mycolicibacterium fortuitum; Table II; 8 strains; read-out: MIC (μg/ml) M. fortuitum (n = 8)
M. kansasii = experiment: In vitro agar dilution assay (MIC), M. kansasii; type: cell-based; conditions: Mycobacterium kansasii; Table II; 2 strains; read-out: MIC (μg/ml) M. kansasii (n = 2)
[4] = system: M. tuberculosis strain 103471; conditions: literature values; cited from earlier work
[5] = read-out: MIC (μg/ml) M. tuberculosis Sensitive (n = 17)
[6] = read-out: MIC (μg/ml) against Clinical isolates Sensitive

COc1ccccc1N1CCN(Cc2cc(-c3ccc(Cl)cc3)n(-c3ccc(Cl)cc3)c2C)CC1 [Compound No. 2, 1-{[1,5-bis(4-chlorophenyl)-2-methylpyrrol-3-yl]methyl}-4-(2-methoxyphenyl) piperazine]
Growth inhibition of M. tuberculosis 27294 [1]: +
MIC (M. tuberculosis 27294): 0.25 µg/mL (≈ 0.494 µM)
MIC [2, 5]: 0.125 to 0.25 µg/mL (≈ 0.247 to 0.494 µM)
MIC [2, 6]: 0.125 to 0.25 µg/mL (≈ 0.247 to 0.494 µM)
MIC [3]: 4 to 8 µg/mL (≈ 7.9 to 15.8 µM)
MIC (M. fortuitum): 8 to 16 µg/mL (≈ 15.8 to 31.6 µM)
MIC (M. kansasii): 8 µg/mL (≈ 15.8 µM)

Cc1cc(CN2CCN(c3ccccn3)CC2)c(-c2ccccc2)n1-c1ccccn1
melting point: 135 to 137 °C

Cc1c(CN2CCN(c3ncccn3)CC2)cc(-c2ccc(Cl)cc2)n1-c1ccc(Cl)cc1 [compound 5, 1-{[1,5-bis(4-chlorophenyl)-2-methylpyrrol-3-yl]methyl}-4-(2-pyrimidyl) piperazine]
Growth inhibition of M. tuberculosis 27294 [1]: +
MIC (M. tuberculosis 27294): 0.25 µg/mL (≈ 0.523 µM)
MIC [2, 5]: 0.5 to 1 µg/mL (≈ 1.05 to 2.09 µM)
MIC [2, 6]: 0.5 to 1 µg/mL (≈ 1.05 to 2.09 µM)
MIC [3]: 4 to 8 µg/mL (≈ 8.36 to 16.7 µM)
MIC (M. fortuitum): 8 to 16 µg/mL (≈ 16.7 to 33.4 µM)
MIC (M. kansasii): 8 µg/mL (≈ 16.7 µM)
melting point: 184 to 186 °C

Cc1c(CN2CCN(C)CC2)cc(-c2ccc(Cl)cc2)n1-c1ccc(Cl)cc1 [BM 212]
MIC value (μg/ml) against the M. tuberculosis strain 103471 [4]: 0.70 µg/mL (≈ 1.69 µM)

Cc1cc(CN2CCN(C(c3ccccc3)c3ccccc3)CC2)c(-c2ccc(Cl)cc2)n1-c1ccc(F)cc1F
melting point: 76 to 78 °C
